In the assay the test system is MiaPaCa-2 cells. The assay is described as follows: MiaPaCa-2 Cell proliferation assay in 3D culture (CCK8). Type of assay: cell-based. The following applies: Homo sapiens, MIA PaCa-2, 120 h; 3D spheroid culture, 5 days with compound, CCK8 readout. As for the experimental part:
MiaPaCa-2 Cell proliferation assay in 3D culture. To evaluate cell viability, MiaPaCa-2 cells in logarithmic growth phase were seeded at optimal density and grown in as spheroids. Cells were incubated for 24 hours prior to the addition of different concentrations of the compounds. Cells were cultured with the compounds for 5 days and the cell viability was assessed using CCK8. Briefly, 2500 cells were seeded in round bottom ultra-low attachment 96 well plates (coming) in growth media supplemented with 10% FBS and incubated at 37° C. for 24 hours. The compounds were dissolved in DMSO (Sigma) to obtain 10 mM stock solution. Then the compounds were serially diluted in 3-fold to ten concentrations; 5 μL of the dilution above was transferred to 95 uL culture media to obtain the 50× compound stock solution; 4 uL of the 50× compound above was then transferred to the wells containing cells with 196 μL of the culture medium to obtain the final 1× concentration. The final concentration of DMSO was 0.1%. Spheroid cells were incubated in compounds for 5 days. Then 20 μL WST-8 solution (DOJINDO, Cell Counting KIT-8) was added to each well. The plates were further incubated at 37° C. for 1.5 hours, and then absorbance at 450 nm was measured using a microplate reader. Each compound was tested in triplicate and the IC50 value was calculated using GraphPad Prism.
The IC50 values of for Compounds disclosed are listed in Table 2, A: ≤500 nM; B: >500 nM and ≤5 μM; C: >5 μM and ≤50 μM; and D: >50 μM.
The term IC50 denotes the concentration that gives 50% inhibition. In the case of `C[C@@H]1OCC2(CCN(c3cnc(Sc4cccc(NC(=O)NS(=O)(=O)C5CCN(C)CC5)c4Cl)cn3)CC2)[C@@H]1N` [Example 70, N-((3-((5-((3S,4S)-4-amino-3-methyl-2-oxa-8-azaspiro[4.5]decan-8-yl)pyrazin-2-yl)thio)-2-chlorophenyl)carbamoyl)-1-methylpiperidine-4-sulfonamide], the IC50 was no more than 0.5 µM.

As for `C[C@@H]1OCC2(CCN(c3cnc(Sc4cccc(NC(=O)NS(=O)(=O)N5CCCC5)c4Cl)cn3)CC2)[C@@H]1N` [Example 13, N-((3-((5-((3S,4S)-4-amino-3-methyl-2-oxa-8-azaspiro[4.5]decan-8-yl)pyrazin-2-yl)thio)-2-chlorophenyl)carbamoyl)pyrrolidine-1-sulfonamide], the IC50 is no more than 0.5 µM.

Regarding `CC1(CN)CCN(c2cnc(Sc3cccc(NC(=O)NS(=O)(=O)c4cccnc4)c3Cl)c(N)n2)CC1` [Example 46, N-((3-((3-amino-5-(4-(aminomethyl)-4-methylpiperidin-1-yl)pyrazin-2-yl)thio)-2-chlorophenyl)carbamoyl)pyridine-3-sulfonamide], the IC50 is no more than 0.5 µM.

Regarding `C[C@@H]1OCC2(CCN(c3cnc(Sc4cccc(NS(=O)(=O)NC(=O)N5CCCC5)c4Cl)cn3)CC2)[C@@H]1N` [Example 16, N—(N-(3-((5-((3S,4S)-4-amino-3-methyl-2-oxa-8-azaspiro[4.5]decan-8-yl)pyrazin-2-yl)thio)-2-chlorophenyl)sulfamoyl)pyrrolidine-1-carboxamide], the IC50 is no more than 0.5 µM.

With `C[C@@H]1OCC2(CCN(c3cnc(Sc4cccc(NC(=O)NS(=O)(=O)c5ccccc5)c4Cl)cn3)CC2)[C@@H]1N` [Example 49, N-((3-((5-((3S,4S)-4-amino-3-methyl-2-oxa-8-azaspiro[4.5]decan-8-yl)pyrazin-2-yl)thio)-2-chlorophenyl)carbamoyl)benzenesulfonamide], the IC50 is no more than 0.5 µM.

Turning to `CC1(CN)CCN(c2cnc(Sc3cccc(NC(=O)NS(=O)(=O)c4ccccn4)c3Cl)c(N)n2)CC1` [Example 45, N-((3-((3-amino-5-(4-(aminomethyl)-4-methylpiperidin-1-yl)pyrazin-2-yl)thio)-2-chlorophenyl)carbamoyl)pyridine-2-sulfonamide], the IC50 was no more than 0.5 µM.

Take `C[C@@H]1OCC2(CCN(c3cnc(Sc4cccc(NC(=O)NS(=O)(=O)C5CCC5)c4Cl)cn3)CC2)[C@@H]1N` [Example 82, N-((3-((5-((3S,4S)-4-amino-3-methyl-2-oxa-8-azaspiro[4.5]decan-8-yl)pyrazin-2-yl)thio)-2-chlorophenyl)carbamoyl)cyclobutanesulfonamide]: the IC50 is no more than 0.5 µM.

Regarding `Cc1noc(C)c1S(=O)(=O)NC(=O)Nc1cccc(Sc2cnc(N3CCC4(CC3)CO[C@@H](C)[C@H]4N)cn2)c1Cl` [Example 65, N-((3-((5-((3S,4S)-4-amino-3-methyl-2-oxa-8-azaspiro[4.5]decan-8-yl)pyrazin-2-yl)thio)-2-chlorophenyl)carbamoyl)-3,5-dimethylisoxazole-4-sulfonamide], the IC50 is no more than 0.5 µM.

Take `C[C@@H]1OCC2(CCN(c3cnc(Sc4cccc(NC(=O)NS(=O)(=O)N5CCCCC5)c4Cl)cn3)CC2)[C@@H]1N` [Example 75, N-((3-((5-((3S,4S)-4-amino-3-methyl-2-oxa-8-azaspiro[4.5]decan-8-yl)pyrazin-2-yl)thio)-2-chlorophenyl)carbamoyl)piperidine-1-sulfonamide]: the IC50 was no more than 0.5 µM.

Consider `C[C@@H]1OCC2(CCN(c3cnc(Sc4ccnc(NC(=O)NS(=O)(=O)c5ccccc5F)c4Cl)cn3)CC2)[C@@H]1N` [Example 52, N-((4-((5-((3S,4S)-4-amino-3-methyl-2-oxa-8-azaspiro[4.5]decan-8-yl)pyrazin-2-yl)thio)-3-chloropyridin-2-yl)carbamoyl)-2-fluorobenzenesulfonamide], for which the IC50 is no more than 0.5 µM.

As for `CC1(CN)CCN(c2cnc(Sc3cccc(NC(=O)NS(=O)(=O)c4ccccc4F)c3Cl)c(N)n2)CC1` [Example 47, N-((3-((3-amino-5-(4-(aminomethyl)-4-methylpiperidin-1-yl)pyrazin-2-yl)thio)-2-chlorophenyl)carbamoyl)-2-fluorobenzenesulfonamide], the IC50 is 0.5 to 5 µM.

On to `C[C@@H]1OCC2(CCN(c3cnc(Sc4cccc(NC(=O)NS(=O)(=O)C5CCOC5)c4Cl)cn3)CC2)[C@@H]1N` (stereo partly drawn) [Example 83, N-((3-((5-((3S,4S)-4-amino-3-methyl-2-oxa-8-azaspiro[4.5]decan-8-yl)pyrazin-2-yl)thio)-2-chlorophenyl)carbamoyl)tetrahydrofuran-3-sulfonamide], for which the IC50 was no more than 0.5 µM.

For the compound `C[C@@H]1OCC2(CCN(c3cnc(Sc4cncc(NC(=O)NS(=O)(=O)c5ccccc5)c4Cl)cn3)CC2)[C@@H]1N` [Example 60, N-((5-((5-((3S,4S)-4-amino-3-methyl-2-oxa-8-azaspiro[4.5]decan-8-yl)pyrazin-2-yl)thio)-4-chloropyridin-3-yl)carbamoyl)benzenesulfonamide], the 50% inhibitory concentration (IC50) was in the range of 0.5 to 5 µM.

With `C[C@@H]1OCC2(CCN(c3cnc(Sc4ccnc(NC(=O)NS(=O)(=O)c5cccc(F)c5)c4Cl)cn3)CC2)[C@@H]1N` [Example 50, N-((4-((5-((3S,4S)-4-amino-3-methyl-2-oxa-8-azaspiro[4.5]decan-8-yl)pyrazin-2-yl)thio)-3-chloropyridin-2-yl)carbamoyl)-3-fluorobenzenesulfonamide], the IC50 was no more than 0.5 µM.

On to `Cc1noc(C)c1S(=O)(=O)NC(=O)Nc1nccc(Sc2cnc(N3CCC4(CC3)CO[C@@H](C)[C@H]4N)cn2)c1Cl` [Example 76, N-((4-((5-((3S,4S)-4-amino-3-methyl-2-oxa-8-azaspiro[4.5]decan-8-yl)pyrazin-2-yl)thio)-3-chloropyridin-2-yl)carbamoyl)-3,5-dimethylisoxazole-4-sulfonamide], for which the IC50 is no more than 0.5 µM.

`C[C@@H]1OCC2(CCN(c3cnc(Sc4ccnc(NC(=O)NS(=O)(=O)c5ccccc5)c4Cl)cn3)CC2)[C@@H]1N` [Example 6, N-((4-((5-((3S,4S)-4-amino-3-methyl-2-oxa-8-azaspiro[4.5]decan-8-yl)pyrazin-2-yl)thio)-3-chloropyridin-2-yl)carbamoyl)benzenesulfonamide]: the IC50 was no more than 0.5 µM.

As to `CC1(CN)CCN(c2cnc(Sc3cccc(C(=O)NS(=O)(=O)C4CCCC4)c3Cl)c(N)n2)CC1` [Example 44, 3-((3-amino-5-(4-(aminomethyl)-4-methylpiperidin-1-yl)pyrazin-2-yl)thio)-2-chloro-N-(cyclopentylsulfonyl)benzamide], the IC50 was no more than 0.5 µM.

As for `C[C@@H]1OCC2(CCN(c3cnc(Sc4cccc(NC(=O)NS(=O)(=O)C5CCCCC5)c4Cl)cn3)CC2)[C@@H]1N` [Example 69, N-((3-((5-((3S,4S)-4-amino-3-methyl-2-oxa-8-azaspiro[4.5]decan-8-yl)pyrazin-2-yl)thio)-2-chlorophenyl)carbamoyl)cyclohexanesulfonamide], the IC50 is no more than 0.5 µM.

Take `C[C@@H]1OCC2(CCN(c3cnc(Sc4cccc(NC(=O)NS(=O)(=O)C5CC5)c4Cl)cn3)CC2)[C@@H]1N` [Example 66, N-((3-((5-((3S,4S)-4-amino-3-methyl-2-oxa-8-azaspiro[4.5]decan-8-yl)pyrazin-2-yl)thio)-2-chlorophenyl)carbamoyl)cyclopropanesulfonamide]: the IC50 is no more than 0.5 µM.

With `C[C@@H]1OCC2(CCN(c3cnc(Sc4cccc(S(=O)(=O)NC(=O)NC5CCCC5)c4Cl)cn3)CC2)[C@@H]1N` [Example 17, 3-((5-((3S,4S)-4-amino-3-methyl-2-oxa-8-azaspiro[4.5]decan-8-yl)pyrazin-2-yl)thio)-2-chloro-N-(cyclopentylcarbamoyl)benzenesulfonamide], the IC50 is no more than 0.5 µM.

With `C[C@@H]1OCC2(CCN(c3cnc(Sc4cccc(NC(=O)NS(=O)(=O)c5ccc(F)cc5)c4Cl)cn3)CC2)[C@@H]1N` [Example 78, N-((3-((5-((3S,4S)-4-amino-3-methyl-2-oxa-8-azaspiro[4.5]decan-8-yl)pyrazin-2-yl)thio)-2-chlorophenyl)carbamoyl)-4-fluorobenzenesulfonamide], the IC50 is no more than 0.5 µM.

As for `C[C@@H]1OCC2(CCN(c3cnc(Sc4ccnc(NC(=O)NS(=O)(=O)c5cncc(F)c5)c4Cl)cn3)CC2)[C@@H]1N` [Example 58, N-((4-((5-((3S,4S)-4-amino-3-methyl-2-oxa-8-azaspiro[4.5]decan-8-yl)pyrazin-2-yl)thio)-3-chloropyridin-2-yl)carbamoyl)-5-fluoropyridine-3-sulfonamide], the IC50 is no more than 0.5 µM.

Regarding `C[C@@H]1OCC2(CCN(c3cnc(Sc4cccc(NC(=O)NS(=O)(=O)c5cnn(C)c5)c4Cl)cn3)CC2)[C@@H]1N` [Example 79, N-((3-((5-((3S,4S)-4-amino-3-methyl-2-oxa-8-azaspiro[4.5]decan-8-yl)pyrazin-2-yl)thio)-2-chlorophenyl)carbamoyl)-1-methyl-1H-pyrazole-4-sulfonamide], the IC50 is no more than 0.5 µM.

For `C[C@@H]1OCC2(CCN(c3cnc(Sc4ccnc(NC(=O)NS(=O)(=O)c5ccccc5)c4F)cn3)CC2)[C@@H]1N` [Example 56, N-((4-((5-((3S,4S)-4-amino-3-methyl-2-oxa-8-azaspiro[4.5]decan-8-yl)pyrazin-2-yl)thio)-3-fluoropyridin-2-yl)carbamoyl)benzenesulfonamide], the IC50 is no more than 0.5 µM.

The values above are taken from US20250109118A1, “HETEROCYCLIC COMPOUNDS AS SHP2 INHIBITORS, COMPOSITIONS COMPRISING THE HETEROCYCLIC COMPOUND, AND METHODS OF USE THEREOF” (JS INNOMED HOLDINGS LTD., priority 2021, published 2025).
